Measured values published in patent publication US8846729B2, “2-thio-1,3,4-oxadiazoles azetidine derivatives as sphingosine-1 phosphate receptors modulators” (Allergan, Inc., priority 2012, dated 2014).

Molecular target: T1, human S1P1 receptor (Homo sapiens, UniProt P21453)
T1 construct: expressed in transfected cells; membranes used
Assay: GTP γ35S binding assay for S1P1 activity
Format: biochemical
Conditions: membranes of cells stably expressing S1P1 receptor, agonist potency
Procedure: Compounds were synthesized and tested for S1P1 activity using the GTP γ^355 binding assay. These compounds may be assessed for their ability to activate or block activation of the human S1P1 receptor in cells stably expressing the S1P1 receptor.
[…] binding was measured in the medium containing (mM) HEPES 25, pH 7.4, MgCl2 10, NaCl 100, dithitothreitol 0.5, digitonin 0.003%, 0.2 nM GTP γ^35S, and 5 μg membrane protein in a volume of 150 μl. Test compounds were included in the concentration range from 0.08 to 5,000 nM unless indicated otherwise. Membranes were incubated with 100 μM 5′-adenylylimmidodiphosphate for 30 min, and subsequently with 10 μM GDP for 10 min on ice. Drug solutions and membrane were mixed, and then reactions were initiated by adding GTP γ^355 and continued for 30 min at 25° C. Reaction mixtures were filtered over Whatman GF/B filters under vacuum, and washed three times with 3 mL of ice-cold buffer (HEPES 25, pH7.4, MgCl2 10 and NaCl 100). Filters were dried and mixed with scintillant, and counted for ^35S activity using a β-counter. Agonist-induced GTP γ^355 binding was obtained by subtracting that in the absence of agonist. Binding data were analyzed using a non-linear regression method. In case of antagonist assay, the reaction mixture contained 10 nM […] in the presence of test antagonist at concentrations ranging from 0.08 to 5000 nM.

T1 sequence (P21453 whole entry): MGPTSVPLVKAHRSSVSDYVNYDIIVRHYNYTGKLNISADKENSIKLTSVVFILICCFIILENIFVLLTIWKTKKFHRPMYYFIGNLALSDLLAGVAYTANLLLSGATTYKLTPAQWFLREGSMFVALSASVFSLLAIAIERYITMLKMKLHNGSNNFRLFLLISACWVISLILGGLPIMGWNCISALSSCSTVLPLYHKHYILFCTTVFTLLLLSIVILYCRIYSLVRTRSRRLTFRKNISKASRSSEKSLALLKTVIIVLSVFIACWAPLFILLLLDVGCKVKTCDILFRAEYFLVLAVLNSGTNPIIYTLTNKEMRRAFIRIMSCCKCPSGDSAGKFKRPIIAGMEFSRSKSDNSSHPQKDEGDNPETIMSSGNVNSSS

Row | SMILES | EC50
1 | O=C(O)C1CN(Cc2ccc(-c3nnc(SCc4cccc(Cl)c4F)o3)cc2)C1 [Compound 1, 1-(4-{5-[(3-Chloro-2-fluorobenzyl)thio]-1,3,4-oxadiazol-2-yl}benzyl)azetidine-3-carboxylic acid] | 18.6 nM
2 | Cc1cc(CN2CC(C(=O)O)C2)ccc1-c1nnc(SC(C)c2cccc([N+](=O)[O-])c2)o1 (stereo not drawn) [Compound 2, 1-[3-Methyl-4-(5-{[1-(3-nitrophenyl)ethyl]thio}-1,3,4-oxadiazol-2-yl)benzyl]azetidine-3-carboxylic acid] | 16.7 nM
3 | CCC(Sc1nnc(-c2ccc(CN3CC(C(=O)O)C3)cc2C)o1)c1cccc([N+](=O)[O-])c1 (stereo not drawn) [Compound 3, 1-[3-Methyl-4-(5-{[1-(3-nitrophenyl)propyl]thio}-1,3,4-oxadiazol-2-yl)benzyl]azetidine-3-carboxylic acid] | 60.9 nM
